Here are results for 3 molecules from ChEMBL document CHEMBL1147352, “Paniceins and related sesquiterpenoids from the Mediterranean sponge Reniera fulva” (1993).

One experiment relates to CCRF-CEM. The experiment in a line: Cytotoxicity against human CCRF-CEM cells. Type of experiment: functional. Particulars: for GI50: read-out: Log10GI50 (converted); for TGI: read-out: Log10TGI (converted).
A further experiment concerns NCI-H522. The experiment in a line: Cytotoxicity against human NCI-H522 cells. It counts as functional. The conditions noted are these: for GI50: read-out: Log10GI50 (converted); for CC50: read-out: Log10LC50 (converted); for TGI: read-out: Log10TGI (converted).

With `COc1cc(C)c(CC/C(C)=C/Cc2cc(O)ccc2O)c(C)c1C` [PANICEIN A HYDROQUINONE], in the experiment with CCRF-CEM, the GI50 was 7.76 µM and the TGI was greater than 25.1 µM. In addition, in the experiment with CCRF-CEM (read-out: Log10LC50 (converted)), the CC50 is greater than 25.1 µM.

As for `C/C(=C\Cc1cc(O)ccc1O)CCc1c(C)cc(O)c(C=O)c1C` [PANICEIN B3], in the experiment on NCI-H522, the GI50 was 10 µM, the CC50 is 55 µM and the TGI was 23.4 µM. Besides, in the experiment on CCRF-CEM, the GI50 is 4.47 µM and the TGI was 30.2 µM.

As for `C/C(=C\Cc1cc(O)ccc1O)CCc1c(C)c(O)c(O)c(C=O)c1C` [PANICEIN C], in the experiment with NCI-H522, the GI50 is 5.25 µM, the CC50 is 63.1 µM and the TGI was 21.4 µM. For the same molecule, in the experiment on CCRF-CEM, the GI50 is 3.31 µM and the TGI was 9.55 µM.
